Assay [1] concerns peripheral blood mononuclear cells (PBMCs) and natural killer cells. Nature of the assay: Degranulation activity of innate immune cells (CD107a expression by FACS). It counts as cell-based, human. The conditions noted are these: cells pretreated with ginsenoside, co-cultured with K562 or 721.221 target cell; compared to DMSO (vehicle)-treated group. The procedure:
Effect of ginsenoside F1 on degranulation activity of innate immune cells was measured by fluorescence activated cell sorter (FACS).
In detail, peripheral blood mononuclear cells (PBMCs) separated from the blood and purified natural killer cells were pretreated with ginsenoside, and then co-cultured with K562 cell or 721.221 cell which is a target cell of the above cells, respectively. Thereafter, the surfaces of the peripheral blood mononuclear cells and the natural killer cells were stained with fluorochrome-conjugated anti-CD3, anti-CD56, and anti-CD107a antibodies. Meanwhile, degranulation activity of peripheral blood mononuclear cells or natural killer cells is proportional to CD107a expression on cell surface, as shown in FIG. 1. Therefore, CD107a expression levels of the peripheral blood mononuclear cells and the natural killer cells were measured by a FACS machine.
(In general: A flow cytometer gives signals particle by particle.)

For assay [2], the system named is primary natural killer cells. Nature of the assay: Analysis of cell-killing factors (perforin, granzyme B) by quantitative RT-PCR. The conditions noted are these: 12 hours after treatment. The format is cell-based, human. How it is done:
To investigate a cell-killing activation mechanism of natural killer cells by ginsenoside F1, primary natural killer cells purified by the method of Example 3-1 were treated with ginsenoside F1 or Rg1. 12 hours later, total RNA was isolated, and then expressions of perforin and granzyme B which are representative cell-killing factors of natural killer cells were analyzed by quantitative RT-PCR.
In detail, total RNA was isolated from natural killer cells using a TRIzol reagent, and cDNA was synthesized using primers of unknown sequences, which were manufactured by Toyobo, and reverse transcriptase. Thereafter, quantitative RT-PCR was performed using primers of the following Table 1 and SYBR PCR Master Mix (Toyobo).
PCR conditions are the same as in the following Table 2.

Assay [3] has as its system natural killer cell-sensitive RMA-S (MHC class I-) cells. Nature of the assay: In vivo natural killer cell-based selective reduction of RMA-S (RMA-S/RMA target cell system). The conditions noted are these: mice pretreated at 25 mg/kg; for removability (selective reduction rate of RMA-S): RMA-S/RMA mixture intraperitoneal, 8 hours later, FACS. How it is done: To evaluate effectiveness of in vivo cell-killing activity of ginsenoside F1, natural killer cell-sensitive RMA-S (MHC class I^−) and natural killer cell-resistant RMA (MHC class I^+) target cell systems were used.
In detail, mice were pretreated with ginsenoside F1 at a dose of 25 mg/kg. A mixture of RMA-S/RMA cells, each cell labeled with different fluorescence intensity, was administered into the mice via intraperitoneal injection. 8 hours later, a selective reduction rate of RMA-S by natural killer cells was analyzed by FACS.

Assay [4] has as its system primary natural killer cells. Nature of the assay: Cell-killing activity of primary natural killer cells (cytolysis of target cells). It counts as cell-based, human. As to conditions: for cytolysis of target cells: compared to DMSO-treated group. An excerpt: (§1) In detail, peripheral blood mononuclear cells (PBMCs) separated from the blood and purified natural killer cells were pretreated with ginsenoside F1 or Rg3, and then co-cultured with K562 cell or 721.221 cell which is an europium-labeled target cells. The natural killer cell and the target cell were mixed at a ratio of 5:1, 10:1, 20:1, and 40:1, followed by culture. Meanwhile, intensity of fluorescence emitted from the target cell is proportional to cell-killing activity of natural killer cell. Therefore, a culture medium was separated by centrifugation, and then fluorescence emitted by cell lysis of the target cell was measured by using a microplate reader.
Blood (50 ml) of a healthy donor was collected in a vacutainer cell preparation tube (BD Biosciences) containing sodium heparin. Thereafter, the blood was percoll-gradient centrifuged to recover a buffy coat which is a white thin layer consisted of platelets and white blood cells. Peripheral blood mononuclear cells obtained by washing this buffy coat with PBS were separated by using a human NK cell negative selection kit (Miltenyl Biotech). Part of the separated natural killer cells and a FACS buffer were mixed, and then purity of natural killer cells (CD3^−/CD16^+) and the number and ratio of CD56^dim/CD16^+, CD56^bright/CD16^−, and CD56^bright/CD16^+ were measured by using a FACS machine and fluorochrome-conjugated anti-CD3, anti-CD56, and […] antibodies. Natural killer cells with purity of 95% or more were used in experiments.
The primary natural killer cells separated by the method of Example 3-1 were used to examine whether ginsenoside F1 increases cell-killing activity of primary natural killer cells, in the same manner as in Example 2.

Assay [5] relates to primary natural killer cells. Nature of the assay: Calcium flux assay by confocal live cell imaging. The format is cell-based, human. The conditions noted are these: activated with NKG2D antibody and 2B4 antibody; compared to ginsenoside Rg1. The procedure:
To investigate a natural killer cell-based immune enhancement mechanism of ginsenoside F1 calcium flux assay of individual cells was performed by live cell imaging using confocal microscopy.
In detail, primary natural killer cells were purified (>97%) by the method of Example 3-1, and then treated with ginsenoside F1 or Rg1. For 30 seconds, a basal calcium level was measured, and then natural killer cells were activated using a combination of NKG2D antibody and 2B4 antibody, followed by calcium flux assay by confocal live cell imaging.
On the technique in general: Calcium assays in cells follow changes in intracellular calcium, usually with a dye or a luminescent sensor.

The subject of assay [6] is natural killer cells co-cultured with K562 cell or 721.221 cell. Nature of the assay: Cell-killing activity of natural killer cells (cytolysis of europium-labeled target cells). It counts as cell-based, human. The conditions noted are these: pretreated NK cells; NK:target ratio 5:1, 10:1, 20:1, 40:1; K562 or 721.221; compared to DMSO-treated group. How it is done: In order to examine whether ginsenoside F1 increases cell-killing activity of natural killer cells, cytolysis of target cells was measured.
as §1

The results in this text go back to patent publication US10682366B2, “Method for enhancing immunity using ginsenoside F1 as an active ingredient” (INTELLIGENT SYNTHETIC BIOLOGY CENTER, priority 2016, dated 2020).

In the case of `CC(C)=CCC[C@](C)(O[C@@H]1O[C@H](CO)[C@@H](O)[C@H](O)[C@H]1O)[C@H]1CC[C@]2(C)[C@@H]1[C@H](O)C[C@@H]1[C@@]3(C)CC[C@H](O)C(C)(C)[C@@H]3[C@@H](O)C[C@]12C` [ginsenoside F1], in assay [1], the CD107a expression entry was “highest CD107a expression”. In addition, in assay [2], the “expression level of granzyme B compared to ginsenoside Rg1-treated group” value is “high expression level of granzyme B” and the “expression level of perforin compared to ginsenoside Rg1-treated group” value is “high expression level of perforin”. In addition, in assay [2] (compared to non-treated group), the “expression level of granzyme B” value is recorded as “about 1.5 times” and the “expression level of perforin” value is “about 2 times”. Further, the “RMA-S reduction effect relative to non-treated group” value in assay [3] (8 hours) came out at 2 times. Besides, the “removability (selective reduction rate of RMA-S)” value in assay [3] was no less than 70%. In assay [4], the “cytolysis of target cells compared to the ginsenoside Rg3 and Rg1-treated group” value is on record as “remarkably excellent cytolysis”; the “cytolysis of target cells” value was “high cytolysis of target cells”. Besides, in assay [5], the “calcium flux of natural killer cells” value is reported as “more effectively promotes calcium flux”. Moreover, the “cytolysis of target cells” value in assay [6] was “high cytolysis of target cells”.
`CC(C)=CCC[C@](C)(O[C@@H]1O[C@H](CO)[C@@H](O)[C@H](O)[C@H]1O)[C@H]1CC[C@]2(C)[C@@H]1[C@H](O)C[C@@H]1[C@@]3(C)CC[C@H](O)C(C)(C)[C@@H]3[C@@H](O[C@@H]3O[C@H](CO)[C@@H](O)[C@H](O)[C@H]3O)C[C@]12C` [ginsenoside Rg1, reference compound]: the “removability (selective reduction rate of RMA-S)” value in assay [3] was “about 52%”. Moreover, the “cytolysis of target cells” value in assay [4] is listed as “high cytolysis of target cells”.
Consider `CC(C)=CCC[C@](C)(O)[C@H]1CC[C@]2(C)[C@@H]1[C@H](O)C[C@@H]1[C@@]3(C)CC[C@H](O[C@@H]4O[C@H](CO)[C@@H](O)[C@H](O)[C@H]4O[C@@H]4O[C@H](CO)[C@@H](O)[C@H](O)[C@H]4O)C(C)(C)[C@@H]3CC[C@]12C` [ginsenoside Rg3, reference compound], for which the CD107a expression result in assay [1] is on record as “increased”. Further, the “cytolysis of target cells” value in assay [4] and in assay [6] was “high cytolysis of target cells” in each case.
